Data on 5 compounds can be found in patent US20260347322A1, “BETA ADRENERGIC AGONIST AND METHODS OF USING THE SAME” (CuraSen Therapeutics, Inc., priority 2019, published 2026).

Type in all cases: cell-based
Experiment [1] concerns Endogenous beta-adrenergic receptor, 1321N1 cells. Description: cAMP homogeneous time-resolved fluorescence (HTRF) assay, endogenous receptor. To be noted: 30 min, 37 °C. The protocol:
(§1) CAMP homogeneous time-resolved fluorescence (HTRF): experimental methods. Compound efficacy is determined using the CAMP Gs dynamic HTRF assay (Cisbio, catalog #62AM4PEC) largely following the manufacturer's instructions, also detailed below.
Compound Preparation: Candidate beta-adrenergic compounds, dissolved to 10 mM in DMSO, are diluted in 1× stimulation buffer 1 (Cisbio Part #64Sβ1FDD) containing 1 mM 3-Isobutyl-1-methylxanthene (IBMX; Cayman Chemical Company, catalog #13347). Serial dilutions are made in a 96 well V-bottom polypropylene compound microplate (Corning, catalog #3363) in stimulation buffer containing 1 mM IBMX, to 2× of the final desired concentration. Standard serial dilution curves are 10-point, 5-fold dilutions starting from a highest concentration of 10 μM. Controls present on every assay plate are 0.1% DMSO (vehicle control), 1 μM isoproterenol (full beta-adrenergic agonist control) and 15 μM xamoterol (partial beta-adrenergic agonist control). 5 μL from the 2× compound plate is stamped into a white 384 round well small volume HiBase assay plate (Greiner Bio-One; catalog #784075) to provide 4 technical replicates per concentration, per compound. Assay plates are centrifuged at 500×g for 10 seconds. Compounds and IBMX are prepared at 2× final dose to compensate for addition of cells.
Cell Preparation: 1× stimulation buffer, washing PBS (Dulbecco's phosphate-buffered saline, —Mg—Ca; Caisson Labs, catalog #PBL01), assay PBS (Dulbecco's phosphate-buffered saline, +Mg, +Ca; Caisson Labs, catalog #PBL02) and Versene (0.02% EDTA disodium salt solution in PBS without calcium or magnesium; Caisson Labs, catalog #EDL01) are pre-warmed to 37 °C Cells expressing beta-adrenergic receptor were washed in washing PBS to remove growth medium and then released from the surface by incubating with Versene for 5-10 minutes at 37 °C. Cells are harvested using assay PBS, counted manually by hemocytometer or by an automated cell counter, pelleted by centrifugation (200×g, 5 minutes) and resuspended in 37 °C. 1× stimulation buffer to a final density of 1.5×10^6 cells/mL. […]
HTRF Reagent Addition, Reading and Data Analysis: After 30 minutes of cell stimulation with test compound, the assay plates are centrifuged at 500×g for 10 seconds, and incubation was stopped with the addition of 5 μL cAMP-D2 acceptor, diluted 1:21 in detection and lysis buffer 2 (Cisbio 62CL2FDF) was added to all cells. […] Plates are centrifuged again at 500×g for 10 seconds, and HTRF was measured using a Tecan Spark plate reader at 50 flashes per well. HTRF ratios (665 nm/620 nm×10,000) are determined and plotted in GraphPad Prism to generate a concentration-effect curve. […]

Experiment [2] has as its target T1, B2-AR (β2 adrenergic receptor) (Homo sapiens, UniProt P07550).
T1 construct: expressed in transfected cells
Description: cAMP homogeneous time-resolved fluorescence (HTRF) assay, β2. On the procedure:
as §1
(§2) Standard serial dilution curves are 10-point, 5-fold dilutions starting from a highest concentration of 10 μM. […] Assay plates are centrifuged at 500×g for 10 seconds. Compounds and IBMX are prepared at 2× final dose to compensate for addition of cells. […]
(§3) Subsequently, 5 μL Anti-cAMP-Eu Donor, diluted 1:21 in detection and lysis buffer 2, was added to cells. […] Plates are centrifuged again at 500×g for 10 seconds, and HTRF was measured using a Tecan Spark plate reader at 50 flashes per well. […] Potency estimates (EC50 and pEC50) are derived from the four-parameter nonlinear regression of the concentration-effect curve and an estimate of relative efficacy is determined by comparing the magnitude of the test compound HTRF signal window (min-max dose) with the signal window of the full agonist control, isoproterenol.

In experiment [3] the target is T2, B1-AR (β1 adrenergic receptor) (Homo sapiens, UniProt P08588).
T2 construct: expressed in transfected cells
T2 sequence (P08588 whole entry): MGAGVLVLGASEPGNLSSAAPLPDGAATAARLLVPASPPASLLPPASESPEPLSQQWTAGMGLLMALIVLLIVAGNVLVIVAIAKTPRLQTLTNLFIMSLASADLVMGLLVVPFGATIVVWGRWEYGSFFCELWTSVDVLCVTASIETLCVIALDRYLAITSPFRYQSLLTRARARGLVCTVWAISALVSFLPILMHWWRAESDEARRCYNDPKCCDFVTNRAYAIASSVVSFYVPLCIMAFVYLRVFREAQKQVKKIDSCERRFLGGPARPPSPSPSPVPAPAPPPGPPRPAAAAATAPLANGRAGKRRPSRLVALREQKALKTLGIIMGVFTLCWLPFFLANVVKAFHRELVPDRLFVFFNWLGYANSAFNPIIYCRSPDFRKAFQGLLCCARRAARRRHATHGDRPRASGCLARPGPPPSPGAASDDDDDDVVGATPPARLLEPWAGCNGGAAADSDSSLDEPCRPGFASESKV
The experiment in a line: cAMP homogeneous time-resolved fluorescence (HTRF) assay, β1. The protocol:
as §1, §2, §3
(TR-FRET usually uses a lanthanide donor and a delayed reading to cut background.)

T1 sequence (P07550 whole entry): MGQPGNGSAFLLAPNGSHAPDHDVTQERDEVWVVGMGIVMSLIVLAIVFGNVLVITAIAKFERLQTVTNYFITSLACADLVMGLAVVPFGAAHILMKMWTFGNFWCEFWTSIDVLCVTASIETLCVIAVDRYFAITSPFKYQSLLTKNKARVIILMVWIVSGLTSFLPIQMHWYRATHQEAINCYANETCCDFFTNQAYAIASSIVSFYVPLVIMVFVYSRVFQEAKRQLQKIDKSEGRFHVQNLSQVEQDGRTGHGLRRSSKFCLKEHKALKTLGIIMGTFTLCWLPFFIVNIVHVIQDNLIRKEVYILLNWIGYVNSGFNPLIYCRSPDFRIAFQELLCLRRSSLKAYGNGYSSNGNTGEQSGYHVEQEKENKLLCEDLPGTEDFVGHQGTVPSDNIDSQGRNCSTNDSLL

For the compound `CC(C)(C)NC[C@@H](O)c1cccc(O)n1` [Compound 02-8], the “Average pEC50 [Receptor subtype: Endogenous; Cell type: 1321N1]” value (shortened to “Average pEC50”) in experiment [1] is “D (D < 6)”.

In the case of `CC(C)(C)NC[C@H](O)c1cccc(O)n1` [Compound 02-7], in experiment [1], the “Average pEC50” value is “D (D < 6)”.

For `CC(C)(C)NC[C@H](O)c1cncc2[nH]ncc12` [Compound 04-153], the EC50 (usually the concentration at which the effect is half-maximal) in experiment [2] was 10 to 100 nM; in experiment [3], > 1000 nM.

In the case of `CC(C)(C)NC[C@@H](O)c1cccc(N)n1` [Compound 02-6], the “Average pEC50” value in experiment [1] is “C (C =< 7-6)”.

Consider `CC(C)(C)NC[C@H](O)c1cnc(N)c(Cl)c1` [Compound 02-1], for which the “Average pEC50” value in experiment [1] was “C (C =< 7-6)”.
